Laboratory results reported in BindingDB's records for doi:10.1021/ml100192b (2011).

Legend:
[1] = Inhibition of lactase in mouse intestinal input by glucose release assay
[2] = Inhibition of maltase in mouse intestinal input by glucose release assay

Structure (SMILES) | IC50 [1] [µM] | IC50 [2] [µM]
CCCCCCCOCCCCCN1C[C@H](O)[C@@H](O)[C@H](O)[C@H]1CO [N-Heptoxypentyl-1-deoxynojirimycin] | 250 | 7
CCCCCCCOCCCCCN1C[C@H](O)[C@@H](O)[C@H](O)[C@@H]1CO [N-Heptoxypentyl-L-ido-1-deoxynojirimycin] | 250 | > 1000
